Like-named read-outs stand apart in the source and are kept apart here.
What was measured:
[1] = system: alcohol dehydrogenase from Lyngbya sp., wild type, SEQ ID NO: 1; assay: Km determination of native Adh in cell extract (forward and back reaction), Lyngbya sp.; assay type: biochemical; conditions: pH 7.5, 30° C.
[2] = system: alcohol dehydrogenase from Cyanothece sp., wild type, SEQ ID NO: 3; assay: Km determination of native Adh in cell extract (forward and back reaction), Cyanothece sp.; assay type: biochemical; conditions: pH 7.5, 30° C.
[3] = system: alcohol dehydrogenase from Synechococcus sp., wild type, SEQ ID NO: 4; assay: Km determination of native Adh in cell extract (forward and back reaction), Synechococcus sp. SEQ ID NO: 4; assay type: biochemical; conditions: pH 7.5, 30° C.
Experimental: (§1) Km values of ADH enzymes were determined herein by varying concentrations of one substrate only while keeping all other substrates at saturated levels. The kinetic parameters of the ADH enzymes were determined herein on cellular extracts, and not on pure enzyme. Km was determined herein using a nonlinear regression algorithm for the single-substrate version of the Michaelis-Menten model by using GraphPad Prism Software (version 5). The detailed description of the algorithm is available on the world wide web at “graphpad.com/guides/prism/6/curve-fitting/index.htm?reg_kcat.htm”.
(§2) As used herein, the Km value was measured according to the method described in Example 4. […] For the forward reaction measurement, 0.15 mM NADPH was added, and acetaldehyde was added in differing amounts ranging from […] to 50 mM. The NADPH oxidation was measured at a wavelength of 340 nm.
(§3) In the above aspects, the Km-values represent the Km-values of the native, i.e. non-recombinant, form of the alcohol dehydrogenase enzyme. A Km-value as used herein can be determined from the endogenously expressed alcohol dehydrogenase enzyme of a wild-type cyanobacterial cell. […]
(§4) The reaction was started by addition of varying amounts of acetaldehyde in final concentrations between 1 μM and 50 mM. The NADPH oxidation was spectrophotometrically monitored at a wavelength of 340 nm on a Shimadzu UV2450 spectrophotometer. […]

[4] = system: alcohol dehydrogenase from Synechococcus sp., wild type, SEQ ID NO: 5; assay: Km determination of native Adh in cell extract (forward and back reaction), Synechococcus sp. SEQ ID NO: 5; assay type: biochemical; conditions: pH 7.5, 30° C.
Experimental: as §1, §2, §3, §4

[5] = system: alcohol dehydrogenase from Synechococcus sp., wild type, SEQ ID NO: 6; assay: Km determination of native Adh in cell extract (forward and back reaction), Synechococcus sp. SEQ ID NO: 6; assay type: biochemical; conditions: pH 7.5, 30° C.
Experimental: as §1, §2, §3, §4

[6] = system: alcohol dehydrogenase from Arthronema africanum, wild type, SEQ ID NO: 8; assay: Km determination of native Adh in cell extract (forward and back reaction), Arthronema africanum; assay type: biochemical; conditions: 0.15 mM NADPH, pH 7.5, 30° C., read-out: Km(MeCHO)
[7] = system: alcohol dehydrogenase from Chroococcidiopsis sp., wild type, SEQ ID NO: 9; assay: Km determination of native Adh in cell extract (forward and back reaction), Chroococcidiopsis sp. SEQ ID NO: 9; assay type: biochemical; conditions: 0.15 mM NADPH, pH 7.5, 30° C., read-out: Km(MeCHO)
Experimental: as §1, §2, §3, §4

Adh from LPP = assay: Km determination in the screening, Adh from LPP; assay type: biochemical; conditions: identified in the screening
Experimental: as §1, §2, §3, §4

[8] = system: alcohol dehydrogenase AdhA from Moorella sp. HUC22-1; conditions: Inokuma et al., Arch Microbiol 188 (2007) 37-45, cited from earlier work
[9] = 0.15 mM NADPH, read-out: Km(MeCHO)
[10] = back reaction, 0.15 mM NADP+, read-out: Km(EtOH)

CC=O [acetaldehyde]
Km ([1]; 0.15 mM NADPH, cell extract, Example 13, read-out: Km value for acetaldehyde): 6 µM
Km ([1]; 0.15 mM NADPH, cell extract, read-out: Km(MeCHO)): 5.8 µM
Km [2, 9]: 75.6 µM
Km [3, 9]: 731 µM
Km [4, 9]: 783 µM
Km [5, 9]: 1130 µM
Km [6]: 3340 µM
Km [7]: 3730 µM
Km (Adh from LPP; read-out: Km for acetaldehyde): 120 µM
Km ([8]; read-out: Km for acetaldehyde): 10000 µM

CCO [ethanol]
Km ([1]; back reaction, 0.15 mM NADP+, cell extract, read-out: Km(EtOH)): 830 µM
Km [2, 10]: 9330 µM
Km [3, 10]: 32400 µM
Km [4, 10]: 67000 µM
Km [5, 10]: 29300 µM
Km (Adh from LPP; read-out: Km for ethanol): 3600 µM
Km ([8]; read-out: Km for ethanol): 40000 µM

CCC=O [propanal]
Km ([1]; as Example 4: 0.15 mM NADPH, FIG. 15A, read-out: Km for propanal): 5.3 µM

Reference: patent US9493795B2 (Algenol Biofuels Inc., priority 2013, dated 2016)
